Experimental findings from ChEMBL document CHEMBL1201862, “PubChem BioAssay data set” (2004) are described below.

“And” between values parts separate entries of the source, which are not always exact repeats. Equal values may be shown once. The source made the active and inactive calls.

Some targets named below: Cytochrome P450 2C9 (Homo sapiens, UniProt P11712); Cytochrome P450 3A4 (Homo sapiens, UniProt P08684); Cytochrome P450 2D6 (Homo sapiens, UniProt P10635).
Test [1] can be described thus: Luminescence Cell-Based Dose Response HTS to Identify Activators of Luciferase Translation or Activity in H4 […] Cells. [Related pubchem assays: 1829 (Project Summary), 1814 (Primary HTS)]. It is filed as functional.
Another test deals with H4. The test can be described thus: Luminescence Cell-Based Dose Response HTS to Identify Activators of 5'UTR Stem-Loop Driven Prion Protein mRNA Translation in H4 Neuroglioblastoma Cells. [Related pubchem assays: 1829 (Project Summary), 1814 (Primary HTS)]. Format: functional. The conditions noted are these: Homo sapiens.
Test [2] is described as follows: Luminescence Cell-Based Dose Confirmation HTS to Identify Activators of 5'UTR Stem-Loop Driven Alpha-Synuclein mRNA Translation in H4 Neuroglioblastoma Cells. [Related pubchem assays: 1829 (Project Summary), 1814 (Primary HTS)]. It is filed as functional.
The target in a further test is T1, Cytochrome P450 1A2 (Homo sapiens, UniProt P05177).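 Further: PubChem cytochrome P450 panel assay, CYP1A2 panel member.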
T1 sequence (P05177 whole entry): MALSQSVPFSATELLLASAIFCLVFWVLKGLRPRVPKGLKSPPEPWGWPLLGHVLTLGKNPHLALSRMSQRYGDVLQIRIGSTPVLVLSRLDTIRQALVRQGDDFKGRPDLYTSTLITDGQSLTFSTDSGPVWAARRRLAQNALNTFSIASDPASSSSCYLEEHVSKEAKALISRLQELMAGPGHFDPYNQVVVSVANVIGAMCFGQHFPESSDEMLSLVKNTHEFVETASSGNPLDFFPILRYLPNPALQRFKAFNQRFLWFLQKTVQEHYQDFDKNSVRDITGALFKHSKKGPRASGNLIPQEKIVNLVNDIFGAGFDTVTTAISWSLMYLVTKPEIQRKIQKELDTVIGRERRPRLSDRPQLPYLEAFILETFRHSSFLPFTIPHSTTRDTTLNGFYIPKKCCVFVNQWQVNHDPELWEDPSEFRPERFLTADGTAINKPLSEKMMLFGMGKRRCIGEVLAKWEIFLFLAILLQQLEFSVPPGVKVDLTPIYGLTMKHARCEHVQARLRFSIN

In another test the target is Cytochrome P450 2C19 (Homo sapiens, UniProt P33261). The test can be described thus: Cytochrome panel assay with activity outcomes. Panel member name: p450-cyp2c19 Compounds with AC50 equal or less than 10 uM are considered active. It is filed as functional. The following applies: read-out: AC50.
Test [3] addresses T2, Rac GTPase-activating protein 1 (Homo sapiens, UniProt Q9H0H5).
T2 sequence (Q9H0H5 whole entry): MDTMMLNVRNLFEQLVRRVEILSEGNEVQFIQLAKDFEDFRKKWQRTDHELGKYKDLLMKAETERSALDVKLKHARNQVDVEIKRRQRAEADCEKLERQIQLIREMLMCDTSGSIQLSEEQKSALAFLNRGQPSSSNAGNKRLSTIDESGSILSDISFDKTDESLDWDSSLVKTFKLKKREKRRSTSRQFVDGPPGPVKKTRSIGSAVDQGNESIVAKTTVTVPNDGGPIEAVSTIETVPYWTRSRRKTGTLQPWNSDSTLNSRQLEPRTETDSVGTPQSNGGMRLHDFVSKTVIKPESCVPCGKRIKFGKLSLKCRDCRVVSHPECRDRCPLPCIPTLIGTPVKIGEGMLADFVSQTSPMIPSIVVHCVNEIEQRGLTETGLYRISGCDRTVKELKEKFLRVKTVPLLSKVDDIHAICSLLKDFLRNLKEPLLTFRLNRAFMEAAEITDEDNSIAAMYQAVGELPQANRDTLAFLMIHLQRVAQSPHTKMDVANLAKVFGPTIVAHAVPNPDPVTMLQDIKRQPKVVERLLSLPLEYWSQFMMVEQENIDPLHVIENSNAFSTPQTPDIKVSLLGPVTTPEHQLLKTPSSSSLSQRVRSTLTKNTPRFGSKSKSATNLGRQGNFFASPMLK
Put plainly: MgcRacGAP GTPase-activating activity inhibitors, confirmation, biochemical, ADP Hunter fluorescence, primary and confirmatory (AID 624330). Format: functional.

Test [4] deals with T3, Heat shock factor protein 1 (Mus musculus, UniProt P38532).
T3 sequence (P38532 whole entry): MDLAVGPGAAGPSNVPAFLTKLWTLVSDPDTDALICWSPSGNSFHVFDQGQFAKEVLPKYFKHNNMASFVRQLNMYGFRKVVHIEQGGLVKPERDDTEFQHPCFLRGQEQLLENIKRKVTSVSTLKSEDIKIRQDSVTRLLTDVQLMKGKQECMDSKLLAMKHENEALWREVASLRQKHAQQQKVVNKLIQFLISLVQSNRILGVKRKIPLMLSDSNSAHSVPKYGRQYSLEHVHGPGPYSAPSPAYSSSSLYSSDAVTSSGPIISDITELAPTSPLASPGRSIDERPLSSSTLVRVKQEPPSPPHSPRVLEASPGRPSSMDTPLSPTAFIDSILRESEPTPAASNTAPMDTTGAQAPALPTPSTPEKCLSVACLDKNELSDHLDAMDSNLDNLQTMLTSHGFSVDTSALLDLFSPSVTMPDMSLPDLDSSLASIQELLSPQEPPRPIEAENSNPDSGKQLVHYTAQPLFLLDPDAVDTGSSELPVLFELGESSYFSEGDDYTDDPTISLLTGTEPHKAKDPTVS
Put plainly: HSF1 potentiators in luciferase reporter cells, confirmation, cell-based, NIH3T3, luminescence, dose retest (AID 435004).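 Further: stress induced by proteasome inhibitor MG132 added 30 min after compound; luciferase reporter driven by HSF1 response element in NIH3T3 cells; actives raise luminescence as potentiators of the MG132 stress response.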 Format: functional. Background: A reporter such as luciferase makes a cellular process visible.

Test [5] in a line: HEp-2 cell cytotoxicity, dose response, cytotoxicity control for RSV inhibitor project, HTS (AID 2410). Format: functional. The conditions noted are these: human respiratory syncytial virus.
Test [6] in a line: inhibitors of intracellular T. cruzi replication, confirmation, NIH3T3 host cells, beta-gal luminescence (AID 2044).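 Further: intracellular parasites grown in NIH/3T3 mouse fibroblasts as host cells; luminescent beta-galactosidase reporter signal from transgenic T. cruzi replicating inside host cells; inhibitors lower the luminescence signal.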 Format: functional, cell-based.
Test [7] is described as follows: cytotoxicity toward NIH3T3 fibroblasts, dose response, counter-screen, cell-based, ATP luminescence, mouse fibroblasts (AID 2010).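 Further: cells exposed to compound for about 90 hours before reading.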 Format: functional. The conditions noted are these: NIH3T3.
Test [8] is described as follows: inhibitors of firefly luciferase expression or activity, dose response, H4 neuroglioma cells, luminescence (AID 1990). It is filed as functional, cell-based.
A short description of test [9]: Luminescence Cell-Based Dose Response HTS to Identify Inhibitors of 5'UTR Stem-Loop Driven Prion Protein mRNA Translation in H4 Neuroglioblastoma Cells. [Related pubchem assays: 1827 (Project Summary), 1813 (Primary HTS)]. It is filed as functional.
Test [10] in a line: inhibitors of SNCA 5'UTR-driven reporter translation, confirmation, H4 neuroglioma cells, luminescence (AID 1988). It is filed as functional, cell-based.

Cytochrome P450 2C9, sequence (P11712 whole entry): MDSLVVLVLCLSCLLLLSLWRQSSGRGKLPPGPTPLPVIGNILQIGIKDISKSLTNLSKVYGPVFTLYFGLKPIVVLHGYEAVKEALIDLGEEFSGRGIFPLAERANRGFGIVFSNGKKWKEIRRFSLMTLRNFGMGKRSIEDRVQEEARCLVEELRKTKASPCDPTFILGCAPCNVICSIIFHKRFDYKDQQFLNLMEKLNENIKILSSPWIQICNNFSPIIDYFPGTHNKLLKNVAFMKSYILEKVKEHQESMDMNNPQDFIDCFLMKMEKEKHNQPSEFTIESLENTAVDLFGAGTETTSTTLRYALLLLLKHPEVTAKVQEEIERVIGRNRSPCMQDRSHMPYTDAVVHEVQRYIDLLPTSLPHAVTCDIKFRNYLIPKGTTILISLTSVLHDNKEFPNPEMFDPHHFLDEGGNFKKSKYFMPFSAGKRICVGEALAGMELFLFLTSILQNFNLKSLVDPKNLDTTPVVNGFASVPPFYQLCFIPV
Cytochrome P450 3A4, sequence (P08684 whole entry): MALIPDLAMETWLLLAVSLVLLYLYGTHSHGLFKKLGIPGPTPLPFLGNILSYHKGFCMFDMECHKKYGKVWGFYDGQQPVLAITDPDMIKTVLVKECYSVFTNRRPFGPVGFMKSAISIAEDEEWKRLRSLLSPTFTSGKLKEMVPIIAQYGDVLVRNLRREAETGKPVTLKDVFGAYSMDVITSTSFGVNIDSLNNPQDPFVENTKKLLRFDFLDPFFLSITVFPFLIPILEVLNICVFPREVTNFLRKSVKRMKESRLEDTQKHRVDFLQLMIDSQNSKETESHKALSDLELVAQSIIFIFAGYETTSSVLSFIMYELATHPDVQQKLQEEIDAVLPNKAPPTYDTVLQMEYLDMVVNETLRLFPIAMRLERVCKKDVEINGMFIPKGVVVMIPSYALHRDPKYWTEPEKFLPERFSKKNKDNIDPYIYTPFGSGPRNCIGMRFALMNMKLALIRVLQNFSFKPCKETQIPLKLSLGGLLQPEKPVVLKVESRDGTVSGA
Cytochrome P450 2C19, sequence (P33261 whole entry): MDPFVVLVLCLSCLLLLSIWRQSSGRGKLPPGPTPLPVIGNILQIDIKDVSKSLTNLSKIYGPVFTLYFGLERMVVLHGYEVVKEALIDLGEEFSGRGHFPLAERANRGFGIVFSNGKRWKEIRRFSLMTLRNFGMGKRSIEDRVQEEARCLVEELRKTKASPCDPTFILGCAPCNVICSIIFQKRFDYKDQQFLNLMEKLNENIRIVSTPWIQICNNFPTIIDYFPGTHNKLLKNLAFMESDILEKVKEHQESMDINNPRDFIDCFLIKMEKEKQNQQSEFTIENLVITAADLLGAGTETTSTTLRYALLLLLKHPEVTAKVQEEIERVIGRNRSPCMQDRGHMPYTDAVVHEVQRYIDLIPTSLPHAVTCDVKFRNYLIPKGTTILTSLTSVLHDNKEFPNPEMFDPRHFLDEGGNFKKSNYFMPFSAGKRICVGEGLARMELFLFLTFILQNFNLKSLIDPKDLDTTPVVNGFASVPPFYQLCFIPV
Cytochrome P450 2D6, sequence (P10635 whole entry): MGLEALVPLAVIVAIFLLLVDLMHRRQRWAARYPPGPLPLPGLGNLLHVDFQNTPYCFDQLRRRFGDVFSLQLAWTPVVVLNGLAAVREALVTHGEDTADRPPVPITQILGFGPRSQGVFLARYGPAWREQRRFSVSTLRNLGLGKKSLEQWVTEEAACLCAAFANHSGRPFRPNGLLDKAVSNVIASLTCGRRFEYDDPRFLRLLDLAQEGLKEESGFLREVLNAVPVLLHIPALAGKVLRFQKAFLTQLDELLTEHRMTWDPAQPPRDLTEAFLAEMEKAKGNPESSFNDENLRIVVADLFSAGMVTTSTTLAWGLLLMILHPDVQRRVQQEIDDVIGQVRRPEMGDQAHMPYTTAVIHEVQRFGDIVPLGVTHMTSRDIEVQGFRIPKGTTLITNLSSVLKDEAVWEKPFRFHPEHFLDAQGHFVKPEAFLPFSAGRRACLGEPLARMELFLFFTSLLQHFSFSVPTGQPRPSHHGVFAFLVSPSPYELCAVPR

The term AC50 denotes the concentration giving half of the maximal activity seen. Consider `COc1cc(Cl)c(C)cc1NC(=O)CNC(=O)Cn1cnc2ccccc2c1=O`, for which the AC50 on Cytochrome P450 2C9 is 10 µM (inconclusive).

The term EC50 denotes the midpoint of the concentration-response curve. On to `c1ccc(-c2nnsc2Sc2ccccn2)cc1`, for which the results for the half-maximal effective concentration (EC50) (in [1]; with H4; in [2]) were 11.7 µM (active), 16.3 µM (active) and 18.3 µM (active), respectively.

Consider `Cc1nc2c(ccc3nc(NC(=O)c4ccc(S(=O)(=O)N(C)C)cc4)sc32)s1`, for which the AC50 on Cytochrome P450 3A4 is 3.55 µM (inconclusive); on Cytochrome P450 1A2, 3.16 µM (inconclusive); at Cytochrome P450 2C9, 0.794 µM (inconclusive); at Cytochrome P450 2C19, 7.94 µM (inconclusive).

As to `CC(C)C[C@H]1C(=O)N2CCC[C@@H]2[C@]2(O)O[C@](NC(=O)[C@H]3C=C4c5cccc6[nH]c(Br)c(c56)C[C@H]4N(C)C3)(C(C)C)C(=O)N12`, the AC50 at Cytochrome P450 2C9 is 12.6 µM (inconclusive) and 15.8 µM (inconclusive).

As for `COn1c(SC(C)C)nc2ccccc2c1=O`, the AC50 at Cytochrome P450 2C9 was 17.8 µM (inconclusive).

Consider `[O-][n+]1onc2c1CCc1nnccc1-2`, for which the EC50 in test [1] was 8.72 µM (active); in the test with H4, > 120 µM (not active); in test [2], 11.4 µM (active).

In general, IC50 refers to the point on the concentration scale where inhibition reaches its midpoint. For the molecule `CCC1(c2ccccc2)NC(=O)N(CC(=O)Nc2ccc(N3CCCC3)cc2C)C1=O` (stereo not drawn), the half-maximal inhibitory concentration (IC50) in test [3] is 112 µM (active).

Usually CC50 stands for the concentration giving 50% cytotoxicity. For `N#Cc1cc(Cl)c(NCC2CCCO2)cc1C#N` (stereo not drawn), the EC50 in test [4] is > 260 µM (inactive). The 50% cytotoxic concentration (CC50) in [5] was 20.9 µM (active).

For the molecule `COc1ccc(OC)c(-c2csc(NC(=O)C3=NN(c4ccccc4)C(=O)CC3)n2)c1`, the concentration giving a half-maximal response (EC50) (in test [1]; with H4; in test [2]) was > 120 µM (not active) in each case.

With `N#C/C(=C/c1ccc(N2CCCCC2)o1)c1cccc(F)c1`, the concentration for a half-maximal effect (EC50) was 0.355 µM (active) in [1]; 3.55 µM (active) in test [6]; 16.5 µM (active) in the test on H4; 0.141 µM (active) in [2]; > 60 µM (not active) in test [7].

`COc1ccc(-c2noc(CCCC(=O)NCCc3ccccc3)n2)cc1OC`: the AC50 is 15.8 µM (inconclusive) at Cytochrome P450 1A2, 22.4 µM (inconclusive) on Cytochrome P450 2D6 and 4.47 µM (inconclusive) at Cytochrome P450 2C9.

Take `CC(C)COc1ccc(N)cc1OCC(C)C`: the 50% inhibitory concentration (IC50) in test [3] was 55.3 µM (active).

As to `Cc1nc([N+](=O)[O-])c(N2CCN(C)CC2)n1Cc1ccccc1`, the concentration at half-maximal activity (AC50) is 35.5 µM (inconclusive) at Cytochrome P450 2D6 and 39.8 µM (inconclusive) on Cytochrome P450 2C9.

`CCN(CC)CCN1C(=O)C(O)=C(C(=O)c2ccc(OC(C)C)cc2)C1c1cccs1` (stereo not drawn): the results for the 50% effective concentration (EC50) (in test [1]; in the test on H4; in test [2]) were 20.1 µM (active), 35 µM (active) and 15.7 µM (active), respectively.

In the case of `Cc1ccccc1N(CC(=O)NC1CCCC1)C(=O)c1csnn1`, the half-maximal effective concentration (EC50) (in test [1]; in the test with H4; in test [2]) was > 120 µM (not active) in each case.

Regarding `Cc1ccc(N/C([S-])=C(/C(=O)c2ccc(C)c([N+](=O)[O-])c2)[n+]2ccccc2)cc1C`, the values for the AC50 at Cytochrome P450 3A4 and on Cytochrome P450 2D6 were 11.2 µM (inconclusive) and 25.1 µM (inconclusive), respectively. The EC50 is 16.1 µM (active) in test [1], 46.6 µM (active) in the test on H4 and 2.37 µM (active) in [2].

For the molecule `COc1ccc(C2C=C(C)Nc3ncnn32)cc1` (stereo not drawn), the EC50 in test [1] is 50.5 µM (active); with H4, > 120 µM (not active); in [2], 19.2 µM (active).

For `O=C(Cn1cnc2c(cnn2-c2ccccc2)c1=O)NCc1ccccc1`, the EC50 in test [1] is 9.72 µM (active); in the test with H4, 89.8 µM (active); in test [2] it was 8.08 µM (active).

In the case of `O=C(NC(=S)Nc1cccc2c(O)cccc12)c1ccco1`, the IC50 in test [3] was 32.3 µM (active).

In the case of `Cc1ccc(OCCCN2CCCC2)c(C)c1`, the IC50 in test [3] was 105 µM (active).

As for `Cc1ccc2c(c1)NCC(C(=O)NC1CCCCC1)O2` (stereo not drawn), the figures for the concentration at half-maximal activity (AC50) on Cytochrome P450 3A4, at Cytochrome P450 1A2 and at Cytochrome P450 2C9 were 31.6 µM (inconclusive), 11.2 µM (inconclusive) and 39.8 µM (inconclusive), respectively.

With `CC(=O)/C(=N/Nc1ccc(Br)cc1)N1CCCc2ccccc21`, the EC50 in [4] is 113 µM (active); in test [8], > 120 µM (not active); in test [9] it was > 120 µM (not active); in [10], 14.5 µM (active). The CC50 in test [5] is 12.8 µM (active).

In the case of `O=C(c1cc(C2CC2)nn1-c1ccccc1)N1CCN(c2ccc(O)cc2)CC1`, the 50% inhibitory concentration (IC50) in test [3] is 37.9 µM (active).

Regarding `O=C(C1CCCN(Cc2cccnc2)C1)N1CCCCC1` (stereo not drawn), the half-inhibitory concentration (IC50) in test [3] is 74 µM (active).

Consider `COc1cc(NC(=S)NC(=O)c2c(OC)cccc2OC)ccc1NC(=O)c1cccs1`, for which, at Cytochrome P450 2C9, the AC50 is 1.41 µM (inconclusive).

On to `N#CCCn1c(=O)c(-c2cc(F)cc(F)c2)nc2cnc(Oc3cccc(Cl)c3)nc21`, for which the figures for the AC50 at Cytochrome P450 3A4 and at Cytochrome P450 2C9 were 10 µM (inconclusive) and 7.94 µM (inconclusive), respectively.

Turning to `C=CCN1/C(=N/C(=O)CC)SC2CS(=O)(=O)CC21` (stereo not drawn), the AC50 on Cytochrome P450 2C9 is 11.2 µM (inconclusive).

Regarding `c1cncc(-c2nnc3n2C2(CCCCC2)Cc2ccccc2-3)c1`, the results for the AC50 at Cytochrome P450 1A2, at Cytochrome P450 2C9 and at Cytochrome P450 2C19 were 39.8 µM (inconclusive), 31.6 µM (inconclusive) and 44.7 µM (inconclusive), respectively.

In the case of `CCOC(=O)c1cc2c(=O)n3ccccc3nc2n(CCOC)/c1=N\C(=O)C(C)(C)C`, the half-maximal activity concentration (AC50) was 31.6 µM (inconclusive) at Cytochrome P450 3A4, 17.8 µM (inconclusive) at Cytochrome P450 2C9 and 20 µM (inconclusive) at Cytochrome P450 2C19.

Take `Cc1cc2oc(C(=O)Nc3c(C)n(C)n(-c4ccccc4)c3=O)c(C)c2cc1C`: the half-maximal effective concentration (EC50) in [1] was > 120 µM (not active); in the test on H4, > 120 µM (not active); in test [2], 46.1 µM (active).

For the molecule `Cc1c(NC(=O)CN2CC(C)OC(C)C2)c(=O)n(-c2ccccc2)n1C` (stereo not drawn), the IC50 in test [3] was 83.1 µM (active).
